Results published in ChEMBL document CHEMBL1143006, “Examination of acylated 4-aminopiperidine-4-carboxylic acid residues in the phosphotyrosyl+1 position of Grb2 SH2 domain-binding tripeptides” (J Med Chem, 2007).

The compounds below were run against Growth factor receptor-bound protein 2 (Homo sapiens, UniProt P62993) (assay: Binding affinity to Grb2-SH2 domain by surface plasmon resonance).

Row | Kd [nM] | Compound
1 | 2180 | NC(=O)C[C@H](NC(=O)C1(NC(=O)[C@@H](CC(=O)O)Cc2ccc(CP(=O)(O)O)cc2)CCN(C(=O)CCCCc2ccccc2)CC1)C(=O)NCCCc1ccc2ccccc2c1
2 | 106 | COC(=O)N1CCC(NC(=O)[C@@H](CC(=O)O)Cc2ccc(CP(=O)(O)O)cc2)(C(=O)N[C@@H](CC(N)=O)C(=O)NCCCc2ccc3ccccc3c2)CC1
3 | 202 | COCCOC(=O)N1CCC(NC(=O)[C@@H](CC(=O)O)Cc2ccc(CP(=O)(O)O)cc2)(C(=O)N[C@@H](CC(N)=O)C(=O)NCCCc2ccc3ccccc3c2)CC1
4 | 272 | NC(=O)C[C@H](NC(=O)C1(NC(=O)[C@@H](CC(=O)O)Cc2ccc(CP(=O)(O)O)cc2)CCN(C(=O)NCCc2ccccc2)CC1)C(=O)NCCCc1ccc2ccccc2c1
5 | 871 | NC(=O)C[C@H](NC(=O)C1(NC(=O)[C@@H](CC(=O)O)Cc2ccc(CP(=O)(O)O)cc2)CCN(C(=O)OCc2ccc(C(=O)O)cc2)CC1)C(=O)NCCCc1ccc2ccccc2c1
6 | 320 | NC(=O)C[C@H](NC(=O)C1(NC(=O)[C@@H](CC(=O)O)Cc2ccc(CP(=O)(O)O)cc2)CCN(C(=O)OCc2ccccc2)CC1)C(=O)NCCCc1ccc2ccccc2c1
7 | 36 | NC(=O)C[C@H](NC(=O)C1(NC(=O)[C@@H](CC(=O)O)Cc2ccc(CP(=O)(O)O)cc2)CCN(C(=O)OCCc2ccccc2)CC1)C(=O)NCCCc1ccc2ccccc2c1
8 | 27 | NC(=O)C[C@H](NC(=O)C1(NC(=O)[C@@H](CC(=O)O)Cc2ccc(CP(=O)(O)O)cc2)CCN(C(=O)CCCc2ccccc2)CC1)C(=O)NCCCc1ccc2ccccc2c1
9 | 458 | Cc1ccc2c(ccn2CCC(=O)N2CCC(NC(=O)[C@@H](CC(=O)O)Cc3ccc(CP(=O)(O)O)cc3)(C(=O)N[C@@H](CC(N)=O)C(=O)NCCCc3ccc4ccccc4c3)CC2)c1
10 | 2140 | NC(=O)C[C@H](NC(=O)C1(NC(=O)[C@@H](CC(=O)O)Cc2ccc(CP(=O)(O)O)cc2)CCN(S(=O)(=O)CCc2ccccc2)CC1)C(=O)NCCCc1ccc2ccccc2c1
